The text below walks through data of patent publication US20260035364A1, “BICYCLIC TETRAHYDROTHIAZEPINE DERIVATIVES” (Hoffmann-La Roche Inc., priority 2022, published 2026).

The target of one test is DGKzeta (Homo sapiens, UniProt Q13574). Description: In vitro DGK inhibition assay (ADP-Glo, liposomes), DGKzeta. Type of test: biochemical. Further details: hDGKzeta(1-928)-N-His; His (N); made in house; host or cells: Sf21 insect cells (baculovirus). Particulars: 2 nM DGK ζ, 50 μM ATP, 125 uM DLG in liposomes, 1 hour reaction. The protocol:
(§1) DGK α and ζ kinases use ATP to phosphorylate the substrate 1,2-dilauroyl-sn-glycerol (DLG, incorporated in the liposomes). ATP is converted to ADP as a result of this enzymatic reaction. After the kinase reaction, an ATP-depletion reagent is added to terminate the kinase reaction and deplete any remaining ATP, leaving only ADP. Second, a detection reagent is added to simultaneously convert ADP to ATP and allow the newly synthesized ATP to be converted to light using a coupled luciferase/luciferin reaction.
Purification of both enzymes was performed as previously described by Takahashi et al., PeerJ, 2018 (Takahashi, D.; Sakane, F. Expression and purification of human diacylglycerol kinase alpha from baculovirus-infected insect cells for structural studies. PeerJ 2018, 6, No. e5449).
(§2) A concentrated liposome solution was prepared in assay buffer without DTT and BSA: 2 mM of DLG in 21 mM of total liposome (2 mM DLG/8 mM PS/11 mM PC). The reaction mixtures contain the assay buffer with a final DLG concentration of 125 uM ATP concentrations of 25 μM (for DGKA assay) or 50 μM (for DGKZ assay). The reactions were started by addition of DGK a and (kinases at 4 nM and 2 nM final concentrations, respectively. After 1 hour reaction, the amount of ADP formed was detected with the ADP-Glo kinase assay (Promega) according to the manufacturer instructions. Compounds were added in 11-points dose response, starting at […], 1:3 dilutions, with a final DMSO concentration of 2%. The multidrop combi was used as a liquid handler and luminescence was read with 0.5 s by the envision reader (PE).
(ADP-Glo first removes unused ATP, then detects ADP through luciferase.)

The next test deals with DGKalpha (Homo sapiens, UniProt P23743). Description: In vitro DGK inhibition assay (ADP-Glo, liposomes), DGKalpha. The class given is biochemical. Further details: hDGKalpha(1-735)-N-His; His (N); made in house; host or cells: Sf21 insect cells (baculovirus). The conditions noted are these: 4 nM DGK α, 25 μM ATP, 125 uM DLG in liposomes, 1 hour reaction. The procedure: as §1
Chain of DGKalpha (P23743 whole entry): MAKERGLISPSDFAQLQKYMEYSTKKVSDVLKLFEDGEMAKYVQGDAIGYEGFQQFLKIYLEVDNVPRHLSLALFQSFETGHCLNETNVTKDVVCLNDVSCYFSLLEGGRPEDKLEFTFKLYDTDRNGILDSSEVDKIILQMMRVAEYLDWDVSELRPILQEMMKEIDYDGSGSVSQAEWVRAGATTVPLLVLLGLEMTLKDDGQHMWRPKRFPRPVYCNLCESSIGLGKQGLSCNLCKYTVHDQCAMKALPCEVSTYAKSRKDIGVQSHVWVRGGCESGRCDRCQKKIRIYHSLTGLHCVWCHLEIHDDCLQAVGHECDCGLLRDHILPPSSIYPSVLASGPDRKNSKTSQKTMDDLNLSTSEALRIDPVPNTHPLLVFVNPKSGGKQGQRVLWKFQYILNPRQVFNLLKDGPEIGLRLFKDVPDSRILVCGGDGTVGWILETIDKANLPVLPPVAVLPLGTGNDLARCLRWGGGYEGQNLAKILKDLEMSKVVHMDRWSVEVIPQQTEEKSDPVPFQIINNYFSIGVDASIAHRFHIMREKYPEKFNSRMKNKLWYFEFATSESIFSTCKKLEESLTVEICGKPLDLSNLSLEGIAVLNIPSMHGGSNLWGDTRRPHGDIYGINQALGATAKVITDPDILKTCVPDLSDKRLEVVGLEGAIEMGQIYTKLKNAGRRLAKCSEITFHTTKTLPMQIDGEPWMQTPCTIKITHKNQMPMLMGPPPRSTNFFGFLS
Full length DGKA and Z were expressed in Sf21 insect cells by infecting the cells with the baculovirus stock at MOI of 2. Purification of both enzymes was performed as previously described by Takahashi et al., PeerJ, 2018 (Takahashi, D.; Sakane, F. Expression and purification of human diacylglycerol kinase alpha from baculovirus-infected insect cells for structural studies. PeerJ 2018, 6, No. e5449).
as §2

In another test the test system is primary human T-cells. The test is described as follows: T-cell proliferation assay (CellTiter-Glo). The class given is cell-based. The conditions noted are these: Homo sapiens, T-cell, 120 h, CD3 condition; for Emax: 5 days, 20 μM reference compound A1 = 100%, read-out: Emax proliferation (% activation); for EC50: proliferation after 5 days, CellTiter-Glo, read-out: Tcell Proliferation CD3 EC50. The procedure: Expanded primary human T-cells are thawed and cultured in RPMI 1640 (Gibco, #61870-010)+5% human serum (HS, Sigma, #H3667)+1 mM Sodium Pyruvate (Gibco, #11360-039)+50 μM 2-mercaptoethanol (Gibco, #31350-010) and 1× Pen-Strep (Life Technologies, #15140122) medium at density of 2 Mio/ml for 3 hours in 5% CO2, 37° C. and 95% humidity. For coating of plates, PBS++ only or PBS++ with CD3 antibody (concentration depending on donor and determined by CD3 titrations) is added 100 μl/well to Poly-D Lysine coated 96-well plates. Plates are sealed and incubated at room temperature for 3 hours on a table-top rocking platform. After incubation, plates are washed once with PBS−− and filled with 40 μl/well culture medium only. Compounds are then added (see next section) to medium only plates. After 3 hours of culturing the T-cells, cells are filtered through a cell strainer (Miltenyi Biotech, #130-041-407), counted again and concentration is adjusted to 1.25 Mio/ml.
Cells are then seeded 80 μl/well to the 40 µl/well including dispensed compounds according to plate layout. By adding cells, compounds are further diluted 1:3, and resulting in 100k cells/120 µl/well. After 48 hours 40 μl of supernatant is collected carefully from the top while not disturbing the cells. Cells are assessed for proliferation 5 days later by measuring […] using CellTiterGlo (Promega).
Compounds were added in a 5 or 6 pt dose response with the Tecan D300e Digital Dispenser, all conditions 3 times more concentrated than the end-concentration, since cells are added afterwards (80p1 cells to 40p1 prepared medium with treatment). The DR was starting at 20 μM or 10 μM final top concentration and a dilution factor of 3.333. The positive control was the reference compound A1 that was added in a dose response as well, additionally to 3 wells of only 20 μM representing the positive stimulator control. All wells were normalized with DMSO to a final concentration of 0.6% (0.2% end-concentration).
After 5 days, for detection of ATP which is directly proportional to the number of cells present per well, the CellTiter-Glo® 2.0 Reagent is used. After visual control for toxicity or precipitations of the tested compounds, the plates are equilibrated to room temperature for 45 minutes. CellTiter-Glo® 2.0 Reagent is equilibrated to room temperature as well. After equilibration, an equal amount of CellTiter-Glo reagent is added to the cells (80 µl/well) with an electronic multichannel pipette. Plates are placed on a rocking platform for 15 minutes at room temperature. After incubation, the bottom of the plates is sealed with backing tape. Luminescence is measured with PHERAstar FSX (interval time 0.5 sec, gain 3000, focal height 15 mm) and exported as CSV file for analysis in Genedata screener.
Calculations and Data Reporting CD3 and PBS plates were analysed separately in Genedata Screener using Roche Normalization PCT_POS_CTRL with DMSO set as Neutral Control and 20 μM of the reference compound A1 set as Stimulator Control/100%.
For CD3 conditions EC50 and Emax of the fitted sigmoidal curve were reported. If no curve could be fitted, the EC50 was reported as blank field and the Emax was based on individual data points. […] Compounds which activate unstimulated cells (see IL2 measurements) or compounds which negatively affected viability were flagged.
(In general: Cellular ATP, detected with luciferase, serves as a proxy for viable cell number.)

Chain of DGKzeta (Q13574 whole entry): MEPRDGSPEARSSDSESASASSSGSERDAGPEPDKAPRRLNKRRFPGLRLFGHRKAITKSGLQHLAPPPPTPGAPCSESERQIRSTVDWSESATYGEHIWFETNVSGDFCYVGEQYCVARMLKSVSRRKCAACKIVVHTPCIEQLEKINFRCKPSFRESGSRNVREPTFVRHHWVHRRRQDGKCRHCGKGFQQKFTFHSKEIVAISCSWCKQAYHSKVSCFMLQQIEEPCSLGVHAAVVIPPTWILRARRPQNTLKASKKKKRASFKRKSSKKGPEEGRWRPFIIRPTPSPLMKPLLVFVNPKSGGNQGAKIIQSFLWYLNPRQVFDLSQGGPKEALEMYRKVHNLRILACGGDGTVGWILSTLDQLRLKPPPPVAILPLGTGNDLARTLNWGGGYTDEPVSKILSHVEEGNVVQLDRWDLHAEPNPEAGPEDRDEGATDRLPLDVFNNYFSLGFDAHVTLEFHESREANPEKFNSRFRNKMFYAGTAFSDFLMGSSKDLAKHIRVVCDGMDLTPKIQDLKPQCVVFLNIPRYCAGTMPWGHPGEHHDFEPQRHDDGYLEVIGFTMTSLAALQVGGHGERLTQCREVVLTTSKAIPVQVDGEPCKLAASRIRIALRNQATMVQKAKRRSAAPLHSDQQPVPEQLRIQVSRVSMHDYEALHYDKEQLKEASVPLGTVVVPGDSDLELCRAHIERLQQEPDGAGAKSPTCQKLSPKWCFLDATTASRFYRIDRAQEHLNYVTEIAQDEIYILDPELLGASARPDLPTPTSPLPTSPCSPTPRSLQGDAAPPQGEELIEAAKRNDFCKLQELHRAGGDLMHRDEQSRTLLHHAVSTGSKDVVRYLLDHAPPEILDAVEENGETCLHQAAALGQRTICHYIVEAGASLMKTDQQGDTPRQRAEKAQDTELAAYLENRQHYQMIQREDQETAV

For `CS(=O)(=O)C1(c2nnc(-c3cc4c(cc3F)S(=O)(=O)C[C@H](N)C(=O)N4Cc3ccc(Cl)cc3)o2)CC1` [Example 1, (3R)-3-amino-5-[(4-chlorophenyl)methyl]-8-fluoro-7-[5-(1-methylsulfonylcyclopropyl)-1,3,4-oxadiazol-2-yl]-1,1-dioxo-2,3-dihydro-1λ6,5-benzothiazepin-4-one], 0.989 µM corresponded to half-maximal inhibition against DGKzeta (IC50). The IC50 (in general, the concentration at which inhibition is half-maximal) against DGKalpha stood at 2.34 µM. In the test on primary human T-cells, the Emax was 99% and the EC50 came out at 2.29 µM.

The molecule `CC(C)(c1nnc(-c2cc3c(cc2F)S(=O)(=O)C[C@H](N)C(=O)N3Cc2ccc(Cl)cc2)o1)S(C)(=O)=O` [Example 2, (3R)-3-amino-5-[(4-chlorophenyl)methyl]-8-fluoro-7-[5-(1-methyl-1-methylsulfonyl-ethyl)-1,3,4-oxadiazol-2-yl]-1,1-dioxo-2,3-dihydro-1λ6,5-benzothiazepin-4-one] gave an IC50 on DGKzeta of 1.38 µM. This molecule registered a 50% inhibitory concentration (IC50) against DGKalpha of 1.09 µM. For the same molecule, in the test on primary human T-cells, the Emax is 123% and the EC50 was found to be 0.399 µM.

On to `CC(C)(c1nnc(-c2ccc3c(c2)N(Cc2ccc(OC(F)(F)C(F)F)cc2)C(=O)[C@@H](N)CS3(=O)=O)o1)S(C)(=O)=O` [Example 3, (3R)-3-amino-7-[5-(1-methyl-1-methylsulfonyl-ethyl)-1,3,4-oxadiazol-2-yl]-1,1-dioxo-5-[[4-(1,1,2,2-tetrafluoroethoxy)phenyl]methyl]-2,3-dihydro-126,5-benzothiazepin-4-one], for which the IC50 at DGKzeta amounted to 0.978 µM; on DGKalpha it was 1.73 µM. For the same molecule, the Emax in the test on primary human T-cells worked out at 66%. Also, the EC50 in the test on primary human T-cells turned out to be 5.07 µM.

As to `CC(C)(c1nnc(-c2ccc3c(c2)N(Cc2ccc(Oc4ccccc4)cc2)C(=O)[C@@H](N)CS3(=O)=O)o1)S(C)(=O)=O` [Example 5, (3R)-3-amino-7-[5-(1-methyl-1-methylsulfonyl-ethyl)-1,3,4-oxadiazol-2-yl]-1,1-dioxo-5-[(4-phenoxyphenyl)methyl]-2,3-dihydro-1λ6,5-benzothiazepin-4-one], the IC50 at DGKzeta is 0.701 µM. The IC50 on DGKalpha turned out to be 3.12 µM. Besides, in the test with primary human T-cells, the Emax was found to be 120% and the EC50 was found to be 0.942 µM.

Molecule `CC(C)(c1nnc(-c2ccc3c(c2)N(Cc2ccc(OCC(F)(F)F)cc2)C(=O)[C@@H](N)CS3(=O)=O)o1)S(C)(=O)=O` [Example 6, (3R)-3-amino-7-[5-(1-methyl-1-methylsulfonyl-ethyl)-1,3,4-oxadiazol-2-yl]-1,1-dioxo-5-[[4-(2,2,2-trifluoroethoxy)phenyl]methyl]-2,3-dihydro-1λ6,5-benzothiazepin-4-one] returned an IC50 against DGKzeta of 2.05 µM. This molecule also displayed an IC50 at DGKalpha of 1.78 µM. Besides, in the test with primary human T-cells, the Emax was 62% and the EC50 came to 5.56 µM.

`CC(C)(c1nnc(-c2ccc3c(c2)N(Cc2ccc(SC(F)(F)F)cc2)C(=O)[C@@H](N)CS3(=O)=O)o1)S(C)(=O)=O` [Example 7]: the midpoint of inhibition against DGKzeta, the IC50, lay at 1.71 µM. In addition, the IC50 against DGKalpha turned out to be 2.3 µM. In addition, in the test on primary human T-cells, the Emax was 76% and the EC50 was found to be 3.59 µM.

As for `CC(C)(c1nnc(-c2ccc3c(c2)N(Cc2ccc(-c4ccc(F)cn4)cc2)C(=O)[C@@H](N)CS3(=O)=O)o1)S(C)(=O)=O` [Example 9, (3R)-3-amino-5-[[4-(5-fluoro-2-pyridyl)phenyl]methyl]-7-[5-(1-methyl-1-methylsulfonyl-ethyl)-1,3,4-oxadiazol-2-yl]-1,1-dioxo-2,3-dihydro-1λ6,5-benzothiazepin-4-one], the IC50 is 1.32 µM against DGKzeta and 0.944 µM on DGKalpha. Besides, the Emax in the test on primary human T-cells came to 82%. For the same molecule, in the test on primary human T-cells, the EC50 is 2.7 µM.

`CC(C)(c1nnc(-c2ccc3c(c2)N(Cc2ccc(-c4ccc(C(F)(F)F)cn4)cc2)C(=O)[C@@H](N)CS3(=O)=O)o1)S(C)(=O)=O` [Example 10] displayed an IC50 against DGKzeta of 1.75 µM. This molecule yielded an IC50 at DGKalpha of 1.02 µM. In the test with primary human T-cells, the Emax turned out to be 145% and the EC50 is 1.16 µM.

In turn, `CC(C)(c1nnc(-c2ccc3c(c2)N(Cc2ccc(OCc4ccccc4)cc2)C(=O)[C@@H](N)CS3(=O)=O)o1)S(C)(=O)=O` [Example 11, (3R)-3-amino-5-[(4-benzyloxyphenyl)methyl]-7-[5-(1-methyl-1-methylsulfonyl-ethyl)-1,3,4-oxadiazol-2-yl]-1,1-dioxo-2,3-dihydro-1λ6,5-benzothiazepin-4-one] yielded a half-inhibitory concentration (IC50) on DGKzeta of 1.06 µM. For the same molecule, half-maximal inhibition at DGKalpha (IC50) was put at 0.753 µM. Besides, in the test with primary human T-cells, the Emax was 145% and the EC50 came out at 0.495 µM.

On to `CC(C)(c1nnc(-c2ccc3c(c2)N(Cc2ccc(OCc4ccc(F)cc4)cc2)C(=O)[C@@H](N)CS3(=O)=O)o1)S(C)(=O)=O` [Example 12, (3R)-3-amino-5-[[4-[(4-fluorophenyl)methoxy]phenyl]methyl]-7-[5-(1-methyl-1-methylsulfonyl-ethyl)-1,3,4-oxadiazol-2-yl]-1,1-dioxo-2,3-dihydro-1λ6,5-benzothiazepin-4-one], for which the half-maximal inhibitory concentration (IC50) at DGKzeta amounted to 0.802 µM. The same molecule showed an IC50 on DGKalpha of 0.669 µM. Besides, in the test with primary human T-cells, the Emax was 151% and the EC50 turned out to be 0.59 µM.

For the molecule `CC(C)(c1nc(-c2cc3c(cc2F)S(=O)(=O)C[C@H](N)C(=O)N3Cc2ccc(C3CCOCC3)cc2)no1)S(C)(=O)=O` [Example 53, (3R)-3-amino-8-fluoro-7-[5-(1-methyl-1-methylsulfonyl-ethyl)-1,2,4-oxadiazol-3-yl]-1,1-dioxo-5-[(4-tetrahydropyran-4-ylphenyl)methyl]-2,3-dihydro-1λ6,5-benzothiazepin-4-one], it took 8.05 µM to reach half-maximal inhibition on DGKalpha (IC50). Further, in the test on primary human T-cells, the Emax is 167% and the EC50 came out at 3.19 µM.
